Data on eleven molecules can be found in PubChem BioAssay (NCI).

Values joined by “and” are separate entries in the source; they are usually repeats but may differ in a detail not shown here. Equal entries are not always repeated.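 Results reflect a 48-hour exposure of cells in 96-well plates to compound at five concentrations. GI50 = concentration required for 50% inhibition of growth. TGI: concentration producing complete growth inhibition.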

Broadly, the GI50 is the concentration at which growth is held to half of that of the control. The term TGI denotes the concentration giving total growth inhibition. A low value points to greater sensitivity of the cells.

In the first assay the test system is SW-620 colon. In words: DTP human tumour cell line panel, 48 h.
Take `Cc1nn(-c2ccc(F)cc2)c2ncnc(Nc3ccc(NC(=O)Nc4ccc(Cl)c(C(F)(F)F)c4)cc3)c12`: the GI50 was 2.93 µM and the TGI was 10.8 µM.

Consider `Cc1ccn2c3c(c(C(=O)O)c2c1)C(=O)c1ccccc1C3=O`, for which the GI50 was 15.1 µM and the TGI was greater than 100 µM.

For the molecule `COc1cc2ncn(-c3cc(OCc4ccccc4Cl)c(C(N)=O)s3)c2cc1OC`, the GI50 is 0.102 µM and the TGI is greater than 18.1 µM.

`Cc1ccc2c(C(C[N+](=O)[O-])c3cccs3)c(-c3ccccc3)[nH]c2c1` (centres undefined): the GI50 is 1.39 µM and the TGI was found to be 8.12 µM.

In turn, `CCc1c2c(nc3cc4c(cc13)OCO4)-c1cc3c(c(=O)n1C2)COC(=O)[C@]3(O)CC` displayed a TGI greater than 100 µM.

On to `C#Cc1cnc(=O)n(C2CC(O)C(CO)O2)c1` (centres undefined), for which the GI50 is greater than 100 µM and the TGI was greater than 100 µM.

Turning to `O=C(c1cccs1)c1c(C(F)(F)F)n([O-])c2ccccc2[n+]1=O`, the GI50 is 1.01 µM and the TGI came to 5.94 µM.

Turning to `CCN1CCN(c2nc(NCCCNc3ccnc4cc(Cl)ccc34)c3ccccc3n2)CC1`, the GI50 was 2.36 µM and the TGI worked out at 7.63 µM.

Regarding `NC(N)=N/N=C(/c1ccccc1)c1ccc(F)cc1`, the GI50 is 0.376 µM and the TGI turned out to be 19.3 µM.

`COc1cc(C(=O)NC2c3ccccc3-c3ccccc32)c(N)cc1OCc1ccccc1`: the GI50 is 66.4 µM and the concentration for total growth inhibition (TGI) is greater than 100 µM.

Take `COc1ccc(C(=S)N2CCN(c3cccc(Cl)c3)CC2)cc1`: the GI50 was greater than 100 µM and the TGI was greater than 100 µM.

A further assay concerns IGROV1 ovarian. In words: DTP human tumour cell line panel, 48 h.
`Cc1nn(-c2ccc(F)cc2)c2ncnc(Nc3ccc(NC(=O)Nc4ccc(Cl)c(C(F)(F)F)c4)cc3)c12`: the GI50 is 2.66 µM and the concentration for total growth inhibition (TGI) was 11.2 µM.

Turning to `Cc1ccn2c3c(c(C(=O)O)c2c1)C(=O)c1ccccc1C3=O`, the GI50 was greater than 42.1 µM and the TGI is greater than 100 µM.

For the molecule `COc1cc2ncn(-c3cc(OCc4ccccc4Cl)c(C(N)=O)s3)c2cc1OC`, the GI50 is 0.552 µM and the TGI is greater than 25 µM.

Take `Cc1ccc2c(C(C[N+](=O)[O-])c3cccs3)c(-c3ccccc3)[nH]c2c1` (centres undefined): the GI50 is 1.12 µM and the total growth inhibition concentration (TGI) came to 5.81 µM.

As for `CCc1c2c(nc3cc4c(cc13)OCO4)-c1cc3c(c(=O)n1C2)COC(=O)[C@]3(O)CC`, the concentration for 50% growth inhibition (GI50) was 0.33 µM and 0.39 µM; the TGI was greater than 100 µM.

As to `C#Cc1cnc(=O)n(C2CC(O)C(CO)O2)c1` (centres undefined), the GI50 is greater than 100 µM and the TGI is greater than 100 µM.

Regarding `O=C(c1cccs1)c1c(C(F)(F)F)n([O-])c2ccccc2[n+]1=O`, the concentration for 50% growth inhibition (GI50) is 0.0603 µM and the TGI stood at 2.29 µM.

For the molecule `CCN1CCN(c2nc(NCCCNc3ccnc4cc(Cl)ccc34)c3ccccc3n2)CC1`, the GI50 is 2.36 µM and the TGI stood at 10.9 µM.

With `NC(N)=N/N=C(/c1ccccc1)c1ccc(F)cc1`, the GI50 is 0.528 µM and the TGI is 13.5 µM.

Regarding `COc1cc(C(=O)NC2c3ccccc3-c3ccccc32)c(N)cc1OCc1ccccc1`, the GI50 was 34.3 µM and the TGI was greater than 100 µM.

Consider `COc1ccc(C(=S)N2CCN(c3cccc(Cl)c3)CC2)cc1`, for which the GI50 was 58.8 µM and the TGI is greater than 100 µM.

The next assay relates to SF-539 CNS. In words: DTP human tumour cell line panel, 48 h.
In the case of `Cc1nn(-c2ccc(F)cc2)c2ncnc(Nc3ccc(NC(=O)Nc4ccc(Cl)c(C(F)(F)F)c4)cc3)c12`, the GI50 was 1.46 µM and the TGI was determined as 3.08 µM.

With `Cc1ccn2c3c(c(C(=O)O)c2c1)C(=O)c1ccccc1C3=O`, the GI50 is 4.46 µM and the TGI was determined as 64.7 µM.

As for `COc1cc2ncn(-c3cc(OCc4ccccc4Cl)c(C(N)=O)s3)c2cc1OC`, the GI50 was 0.249 µM and the concentration for total growth inhibition (TGI) is 4.31 µM.

As to `Cc1ccc2c(C(C[N+](=O)[O-])c3cccs3)c(-c3ccccc3)[nH]c2c1` (centres undefined), the GI50 is 1.54 µM and the TGI turned out to be 6.21 µM.

With `CCc1c2c(nc3cc4c(cc13)OCO4)-c1cc3c(c(=O)n1C2)COC(=O)[C@]3(O)CC`, the 50% growth inhibitory concentration (GI50) is less than 0.001 µM and the TGI was 0.0505 µM.

In the case of `C#Cc1cnc(=O)n(C2CC(O)C(CO)O2)c1` (centres undefined), the GI50 is greater than 100 µM and the concentration for total growth inhibition (TGI) is greater than 100 µM.

As to `O=C(c1cccs1)c1c(C(F)(F)F)n([O-])c2ccccc2[n+]1=O`, the GI50 was 1.11 µM and the TGI is 3.42 µM.

Regarding `CCN1CCN(c2nc(NCCCNc3ccnc4cc(Cl)ccc34)c3ccccc3n2)CC1`, the GI50 is 1.71 µM and the TGI stood at 3.34 µM.

On to `NC(N)=N/N=C(/c1ccccc1)c1ccc(F)cc1`, for which the concentration for 50% growth inhibition (GI50) is 0.271 µM and the TGI is 0.902 µM.

For the molecule `COc1cc(C(=O)NC2c3ccccc3-c3ccccc32)c(N)cc1OCc1ccccc1`, the GI50 is 11.8 µM and the TGI was determined as 28.3 µM.

With `COc1ccc(C(=S)N2CCN(c3cccc(Cl)c3)CC2)cc1`, the GI50 is greater than 100 µM and the TGI is greater than 100 µM.

The next assay deals with NCI-H460 lung. In words: DTP human tumour cell line panel, 48 h.
Turning to `Cc1nn(-c2ccc(F)cc2)c2ncnc(Nc3ccc(NC(=O)Nc4ccc(Cl)c(C(F)(F)F)c4)cc3)c12`, the GI50 was 2.35 µM and the TGI is 6.01 µM.

Consider `Cc1ccn2c3c(c(C(=O)O)c2c1)C(=O)c1ccccc1C3=O`, for which the GI50 is 1.36 µM and the TGI was determined as 3.07 µM.

As to `COc1cc2ncn(-c3cc(OCc4ccccc4Cl)c(C(N)=O)s3)c2cc1OC`, the GI50 was 0.146 µM and the total growth inhibition concentration (TGI) was greater than 8.64 µM.

Turning to `Cc1ccc2c(C(C[N+](=O)[O-])c3cccs3)c(-c3ccccc3)[nH]c2c1` (centres undefined), the GI50 is 1.38 µM and the total growth inhibition concentration (TGI) came out at 6.14 µM.

For `CCc1c2c(nc3cc4c(cc13)OCO4)-c1cc3c(c(=O)n1C2)COC(=O)[C@]3(O)CC`, the GI50 is less than 0.001 µM; the total growth inhibition concentration (TGI) was 1.09 µM and 0.617 µM.

As to `C#Cc1cnc(=O)n(C2CC(O)C(CO)O2)c1` (centres undefined), the GI50 was greater than 78.5 µM and the TGI is greater than 100 µM.

With `O=C(c1cccs1)c1c(C(F)(F)F)n([O-])c2ccccc2[n+]1=O`, the GI50 is 0.234 µM and the TGI worked out at 0.597 µM.

Consider `CCN1CCN(c2nc(NCCCNc3ccnc4cc(Cl)ccc34)c3ccccc3n2)CC1`, for which the GI50 was 2.14 µM and the TGI came to 5.1 µM.

On to `NC(N)=N/N=C(/c1ccccc1)c1ccc(F)cc1`, for which the GI50 is 0.342 µM and the total growth inhibition concentration (TGI) came out at 10.8 µM.

For `COc1cc(C(=O)NC2c3ccccc3-c3ccccc32)c(N)cc1OCc1ccccc1`, the GI50 was 35.1 µM and the TGI is greater than 100 µM.

`COc1ccc(C(=S)N2CCN(c3cccc(Cl)c3)CC2)cc1`: the GI50 is greater than 100 µM and the TGI was greater than 100 µM.

Another assay deals with MDA-MB-435. Nature of the assay: DTP human tumour cell line panel, 48 h.
In the case of `Cc1nn(-c2ccc(F)cc2)c2ncnc(Nc3ccc(NC(=O)Nc4ccc(Cl)c(C(F)(F)F)c4)cc3)c12`, the GI50 was 3.26 µM and the total growth inhibition concentration (TGI) amounted to 12.6 µM.

For the molecule `Cc1ccn2c3c(c(C(=O)O)c2c1)C(=O)c1ccccc1C3=O`, the GI50 was 1.57 µM and the TGI was 3.05 µM.

Regarding `COc1cc2ncn(-c3cc(OCc4ccccc4Cl)c(C(N)=O)s3)c2cc1OC`, the GI50 is 0.0745 µM and the TGI was determined as 0.351 µM.

On to `Cc1ccc2c(C(C[N+](=O)[O-])c3cccs3)c(-c3ccccc3)[nH]c2c1` (centres undefined), for which the GI50 was 0.822 µM and the TGI stood at 2.14 µM.

Regarding `CCc1c2c(nc3cc4c(cc13)OCO4)-c1cc3c(c(=O)n1C2)COC(=O)[C@]3(O)CC`, the GI50 was 0.0182 µM and 0.0961 µM; the total growth inhibition concentration (TGI) was greater than 100 µM.

With `C#Cc1cnc(=O)n(C2CC(O)C(CO)O2)c1` (centres undefined), the GI50 was greater than 100 µM and the total growth inhibition concentration (TGI) is greater than 100 µM.

In the case of `O=C(c1cccs1)c1c(C(F)(F)F)n([O-])c2ccccc2[n+]1=O`, the GI50 is 1.15 µM and the TGI worked out at 3.5 µM.

For the molecule `CCN1CCN(c2nc(NCCCNc3ccnc4cc(Cl)ccc34)c3ccccc3n2)CC1`, the GI50 is 1.92 µM and the TGI worked out at 3.53 µM.

`NC(N)=N/N=C(/c1ccccc1)c1ccc(F)cc1`: the GI50 is 0.203 µM and the TGI worked out at 0.834 µM.

Consider `COc1cc(C(=O)NC2c3ccccc3-c3ccccc32)c(N)cc1OCc1ccccc1`, for which the GI50 is greater than 100 µM and the TGI is greater than 100 µM.

For `COc1ccc(C(=S)N2CCN(c3cccc(Cl)c3)CC2)cc1`, the GI50 was 62 µM and the TGI is greater than 100 µM.
